Where “and” joins values, the source holds several entries; their conditions need not be identical. Equal values may be shown once.
Legend:
[1] = Mouse weight under the treatment regimens of Example 6 (PDX mice); details: Cisplatin 4 mg/kg i.v. (C. Ex. 2), PDX mice 1-6
Description: For these experiments, eight (8) treatment groups for PDX mice were set up: control IgG group (C.Ex. 1), single cisplatin group (4 mg/kg; C.Ex. 2), single anti-CD14-IgG1 group (5 mg/kg; Ex. 1), single anti-CD14-IgG4 (5 mg/kg; Ex. 2), combined cisplatin and anti-CD14-IgG1 group (4 mg/kg+1.5 mg/kg; Ex. 3), combined cisplatin and anti-CD14-IgG4 group (4 mg/kg+1.5 mg/kg; Ex. 4), combined cisplatin and anti-CD14-IgG1 group (4 mg/kg+5 mg/kg; Ex. 5), and combined cisplatin and anti-CD14-IgG4 group (4 mg/kg+5 mg/kg; Ex. 6). […] When cisplatin was used in these experiments, the cisplatin was used at a dose of 4 mg/kg. “C.Ex.” refers to comparative examples and “Ex.” refers to examples of embodiments of the present disclosure. The control is a non-specific IgG1 having two identical heavy chains and two identical light chains. The non-specific IgG1 has no binding affinity to the antigen.
Drug administration on the PDX mice was performed intravenously. Drug administration was performed on days 0, 4, 7, 11, 14, 18, 21, 25, and 28. Measurements of length, width, volume, and weight were performed prior to the drug administration on day 0, 4, 7, 11, 14, 18, 21, 25, and 28. The tumors were present on the skin of the mice. A ruler was used to measure the length and the width. The tumor volume was calculated by volume=½(length×width^2). The weight of the mouse was measured by placing the mouse on a scale and weighing. Tumor weight was measured by removing the tumor from the mouse and weighing on a scale.

[2] = tested on: CD14 positive recurrent bladder cancer patient-derived xenograft (PDX); assay: Anti-CD14 IgG1/IgG4 with or without cisplatin, tumor treatment in PDX mice (tumor length, width, volume, tumor weight; Example 6); assay type: in vivo; details: for Tumor Length / Tumor Volume / Tumor Width: Cisplatin 4 mg/kg i.v. (C. Ex. 2), PDX mice 1-6
Excerpt: After removing the primary tumor tissue from the patient, the tissue was temporarily placed in a complete culture medium containing RPMI1640 (Gibco Roswell Park Memorial Institute 1640 Media)+PS (penicillin and streptomycin)+10% FBS (Fetal bovine serum). The tissue was then transported to a sterile operating room within an SPF-grade (Specific Pathogen Free) animal facility. The tumor tissue was cut to an appropriate size (5 millimeters (mm) in diameter). Severely immunodeficient NSG (NOD scid gamma mouse) mice were anesthetized using an isoflurane respirator. The tumor was transplanted subcutaneously into the right rib area through surgery. When the tumor volume reached 1 cm^3, it was passaged following the same procedure, and after expanding for three generations, the tumor became stable for use in formal experiments. During the experiment, passaging and expansion were performed as needed. When the tumor volume reached 100 mm^3, the mice were divided into groups according to the experimental requirements and treated with drugs.
The IgG4 tested is the original version of Atibuclimab.
Drug administration on the PDX mice was performed intravenously.

SMILES: N.N.[Cl][Pt][Cl] [Cisplatin, cisplatin, reference compound]
- Mouse Weight ([1]; Day 0): 20.24 g and 20.99 g and 19.91 g and 20.78 g and 20.29 g and 20.61 g
- Mouse Weight ([1]; Day 4): 20.91 g and 20.32 g and 20.42 g and 20.81 g and 20.93 g and 19.35 g
- Mouse Weight ([1]; Day 7): 19.77 g and 20.8 g and 21.42 g and 19.96 g and 20.93 g and 20.38 g
- Mouse Weight ([1]; Day 11): 21.17 g and 21.76 g and 20.58 g and 20.08 g and 21.59 g and 19.94 g
- Mouse Weight ([1]; Day 14): 21.09 g and 21.3 g and 21.38 g and 21.68 g and 20.56 g and 22.59 g
- Mouse Weight ([1]; Day 18): 21.17 g and 21.02 g and 21.25 g and 21.23 g and 21.03 g and 21.58 g
- Mouse Weight ([1]; Day 21): 22.54 g and 22.44 g and 22.47 g and 22.85 g and 22.23 g and 22.65 g
- Mouse Weight ([1]; Day 25): 25.05 g and 24.06 g and 22.26 g and 23.7 g and 25.49 g and 22.66 g
- Mouse Weight ([1]; Day 28): 24.11 g and 25.57 g and 24.32 g and 23.69 g and 24.47 g and 25.73 g
- Tumor Length ([2]; Day 0): 6.73 mm and 6.19 mm and 6.27 mm and 6.28 mm and 7.76 mm and 7.8 mm
- Tumor Volume ([2]; Day 0): 60.66 mm^3 and 92.72 mm^3 and 86.02 mm^3 and 73.84 mm^3 and 94.74 mm^3 and 109.53 mm^3
- Tumor Width ([2]; Day 0): 4.15 mm and 5.35 mm and 5.12 mm and 4.74 mm and 4.83 mm and 5.18 mm
- Tumor Length ([2]; Day 4): 6.66 mm and 6.27 mm and 5.94 mm and 5.93 mm and 6.62 mm and 5.98 mm
- Tumor Volume ([2]; Day 4): 87.83 mm^3 and 103.64 mm^3 and 106.38 mm^3 and 105.48 mm^3 and 165.90 mm^3 and 96.75 mm^3
- Tumor Width ([2]; Day 4): 5.02 mm and 5.62 mm and 5.85 mm and 5.83 mm and 6.92 mm and 5.56 mm
- Tumor Length ([2]; Day 7): 6.33 mm and 6.99 mm and 6.68 mm and 7.3 mm and 7.66 mm and 7.34 mm
- Tumor Volume ([2]; Day 7): 97.32 mm^3 and 111.46 mm^3 and 139.19 mm^3 and 144.96 mm^3 and 184.82 mm^3 and 147.18 mm^3
- Tumor Width ([2]; Day 7): 5.42 mm and 5.52 mm and 6.31 mm and 6.16 mm and 6.79 mm and 6.19 mm
- Tumor Length ([2]; Day 11): 8.7 mm and 6.68 mm and 7.84 mm and 8.41 mm and 7.57 mm and 7.94 mm
- Tumor Width ([2]; Day 11): 6.55 mm and 6.18 mm and 6.08 mm and 7.57 mm and 7.19 mm and 5.43 mm
- Tumor Length ([2]; Day 14): 7.16 mm and 8.08 mm and 7.68 mm and 8.19 mm and 9.8 mm and 9.87 mm
- Tumor Volume ([2]; Day 14): 191.56 mm^3 and 209.57 mm^3 and 206.05 mm^3 and 280.52 mm^3 and 299.36 mm^3 and 256.73 mm^3
- Tumor Width ([2]; Day 14): 7.15 mm and 7.04 mm and 7.16 mm and 8.09 mm and 7.64 mm and 7.05 mm
- Tumor Length ([2]; Day 18): 9.5 mm and 10.13 mm and 8.93 mm and 9.14 mm and 8.11 mm and 9.96 mm
- Tumor Volume ([2]; Day 18): 359.20 mm^3 and 359.95 mm^3 and 306.62 mm^3 and 367.06 mm^3 and 235.57 mm^3 and 353.91 mm^3
- Tumor Width ([2]; Day 18): 8.5 mm and 8.24 mm and 8.1 mm and 8.76 mm and 7.45 mm
- Tumor Length ([2]; Day 21): 9.64 mm and 9.79 mm and 9.77 mm and 10.69 mm and 9.27 mm and 9.57 mm
- Tumor Volume ([2]; Day 21): 461.07 mm^3 and 334.49 mm^3 and 398.65 mm^3 and 549.42 mm^3 and 378.25 mm^3 and 399.39 mm^3
- Tumor Width ([2]; Day 21): 9.56 mm and 8.08 mm and 8.83 mm and 9.91 mm and 8.93 mm
- Tumor Length ([2]; Day 25): 10.14 mm and 11.63 mm and 10.89 mm and 10.35 mm and 10.8 mm and 9.29 mm
- Tumor Volume ([2]; Day 25): 447.20 mm^3 and 648.21 mm^3 and 545.11 mm^3 and 447.56 mm^3 and 545.04 mm^3 and 354.58 mm^3
- Tumor Width ([2]; Day 25): 9.18 mm and 10.32 mm and 9.78 mm and 9.09 mm and 9.82 mm and 8.54 mm
- Tumor Length ([2]; Day 28): 10.94 mm and 11.95 mm and 11.36 mm and 9.95 mm and 11.27 mm and 11.26 mm
- Tumor Volume ([2]; Day 28): 472.03 mm^3 and 644.29 mm^3 and 617.31 mm^3 and 399.59 mm^3 and 624.50 mm^3 and 680.98 mm^3
- Tumor Width ([2]; Day 28): 9.08 mm and 10.15 mm and 10.19 mm and 8.76 mm and 10.29 mm and 10.75 mm
- Tumor weight after 28 days ([2]; Cisplatin (4 mg/kg), C. Ex. 2, per mouse 1-6): 0.556 grams and 0.459 grams and 0.538 grams and 0.669 grams and 0.566 grams and 0.419 grams
- tumor suppression rate ([2]; single cisplatin 4 mg/kg (C.Ex. 2), after 28 days, compared to the control group): about 50%

From patent US20250011456A1, “ANTIBODIES AGAINST CD14 AND USES THEREOF” (Villanelle Life Science Inc, priority 2023, published 2025)
